Assay results from patent US20090142431A1 (U.S. Nutraceuticals, LLC d/b/a Valensa International, priority 2005, published 2009).

Assays:
poxvirus vGK5 = format: cell-based
[1] = compared with alpha-tocopherol; cited from earlier work

Compound: CC1=C(/C=C/C(C)=C/C=C/C(C)=C/C=C/C=C(C)/C=C/C=C(C)/C=C/C2=C(C)C(=O)C(O)CC2(C)C)C(C)(C)CC(O)C1=O (stereo not drawn) [astaxanthin, 3,3′-dihydroxy-β,β-carotene-4,4′-dione]
- IC50 (poxvirus vGK5): less than 125 ppm
- ability to quench singlet oxygen relative to alpha-tocopherol [1]: over five hundred times
